The source of these data is article PMC8213057, “Targeting ALK2: An Open Science Approach to Developing Therapeutics for the Treatment of Diffuse Intrinsic Pontine Glioma” (Journal of Medicinal Chemistry, 2020).

For assay [1], the target named is T1, NEK11 (Homo sapiens, UniProt Q8NG66).
T1 sequence (Q8NG66 1-645): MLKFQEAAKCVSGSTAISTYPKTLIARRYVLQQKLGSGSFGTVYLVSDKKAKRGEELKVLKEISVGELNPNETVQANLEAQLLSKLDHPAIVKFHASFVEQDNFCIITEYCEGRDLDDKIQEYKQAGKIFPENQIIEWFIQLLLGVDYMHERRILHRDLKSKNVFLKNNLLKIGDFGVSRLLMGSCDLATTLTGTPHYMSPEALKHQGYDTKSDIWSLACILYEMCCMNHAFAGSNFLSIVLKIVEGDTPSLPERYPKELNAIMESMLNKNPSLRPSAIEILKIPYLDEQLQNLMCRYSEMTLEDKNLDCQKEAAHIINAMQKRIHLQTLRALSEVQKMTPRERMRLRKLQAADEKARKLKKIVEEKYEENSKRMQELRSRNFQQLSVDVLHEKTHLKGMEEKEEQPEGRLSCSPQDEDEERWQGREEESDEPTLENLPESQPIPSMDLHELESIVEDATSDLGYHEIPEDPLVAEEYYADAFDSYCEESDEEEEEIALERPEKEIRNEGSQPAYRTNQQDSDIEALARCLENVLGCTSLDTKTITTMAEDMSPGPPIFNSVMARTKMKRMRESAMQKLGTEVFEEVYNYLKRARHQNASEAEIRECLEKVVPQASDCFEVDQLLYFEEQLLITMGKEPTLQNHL
The assay can be described thus: biochemical. The note with it: read-out: % enzyme activity, 1 μM; Run 1, Run 2.

The target in assay [2] is ZAK/MLTK (Homo sapiens, UniProt Q9NYL2). Put plainly: 375-member kinase panel. The format is biochemical. The note with it: Run 1, Run 2; for % enzyme activity: 1 μM; for remaining activity at 1 µM: read-out: % enzyme activity, 1 μM.
Sequence of ZAK/MLTK (Q9NYL2 whole entry): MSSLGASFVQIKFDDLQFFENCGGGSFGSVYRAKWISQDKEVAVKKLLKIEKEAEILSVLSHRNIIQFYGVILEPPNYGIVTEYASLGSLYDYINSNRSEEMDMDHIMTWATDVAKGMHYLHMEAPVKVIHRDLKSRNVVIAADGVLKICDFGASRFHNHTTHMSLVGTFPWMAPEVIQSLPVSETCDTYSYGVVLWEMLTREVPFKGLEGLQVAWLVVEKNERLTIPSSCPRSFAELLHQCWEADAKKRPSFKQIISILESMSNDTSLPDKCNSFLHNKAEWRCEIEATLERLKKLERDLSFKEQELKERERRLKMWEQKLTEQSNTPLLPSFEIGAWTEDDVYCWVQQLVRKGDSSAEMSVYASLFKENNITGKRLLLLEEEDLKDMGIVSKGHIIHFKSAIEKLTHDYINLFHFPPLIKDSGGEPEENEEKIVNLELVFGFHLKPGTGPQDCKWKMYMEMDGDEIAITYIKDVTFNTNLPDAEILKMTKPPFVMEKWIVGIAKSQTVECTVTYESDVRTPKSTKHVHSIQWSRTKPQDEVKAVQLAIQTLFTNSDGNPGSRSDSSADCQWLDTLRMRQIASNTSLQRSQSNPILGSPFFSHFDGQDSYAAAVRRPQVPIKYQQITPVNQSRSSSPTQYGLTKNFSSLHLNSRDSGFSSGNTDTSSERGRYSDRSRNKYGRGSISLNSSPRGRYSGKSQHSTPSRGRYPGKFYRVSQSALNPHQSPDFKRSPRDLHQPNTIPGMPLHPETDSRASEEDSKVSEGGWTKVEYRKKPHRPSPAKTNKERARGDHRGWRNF
For assay [3], the target named is p70S6K/RPS6KB1 (Homo sapiens, UniProt P23443). The note with it: 1 μM; Run 1, Run 2.
In assay [4] the target is HPK1/MAP4K1 (Homo sapiens, UniProt Q92918). The assay can be described thus: biochemical. The note with it: read-out: % enzyme activity, 1 μM; Run 1, Run 2.
Sequence of HPK1/MAP4K1 (Q92918 whole entry): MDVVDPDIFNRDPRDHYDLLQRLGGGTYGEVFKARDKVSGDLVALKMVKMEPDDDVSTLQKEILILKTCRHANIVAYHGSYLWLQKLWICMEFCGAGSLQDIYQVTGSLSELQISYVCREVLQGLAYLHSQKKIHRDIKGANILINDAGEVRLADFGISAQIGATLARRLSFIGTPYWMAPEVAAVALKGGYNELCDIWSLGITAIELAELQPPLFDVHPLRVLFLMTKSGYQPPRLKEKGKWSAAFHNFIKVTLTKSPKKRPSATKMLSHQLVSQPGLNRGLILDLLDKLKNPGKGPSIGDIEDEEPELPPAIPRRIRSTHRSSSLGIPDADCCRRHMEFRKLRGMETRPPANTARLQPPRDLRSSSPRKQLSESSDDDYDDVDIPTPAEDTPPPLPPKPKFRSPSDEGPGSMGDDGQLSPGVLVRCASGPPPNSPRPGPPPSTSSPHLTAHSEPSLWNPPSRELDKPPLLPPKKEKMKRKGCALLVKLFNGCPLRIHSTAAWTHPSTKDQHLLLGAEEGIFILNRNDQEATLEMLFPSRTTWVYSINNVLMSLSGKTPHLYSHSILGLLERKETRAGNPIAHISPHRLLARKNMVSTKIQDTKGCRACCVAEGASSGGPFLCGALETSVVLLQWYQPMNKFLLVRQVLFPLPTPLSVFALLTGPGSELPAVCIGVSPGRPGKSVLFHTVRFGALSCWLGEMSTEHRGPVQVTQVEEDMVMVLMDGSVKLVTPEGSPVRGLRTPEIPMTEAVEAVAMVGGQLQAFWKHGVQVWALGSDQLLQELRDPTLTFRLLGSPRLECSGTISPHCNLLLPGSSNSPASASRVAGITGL
Assay [5] deals with RIPK3 (Homo sapiens, UniProt Q9Y572). The assay can be described thus: biochemical. The note with it: read-out: % enzyme activity, 1 μM; Run 1, Run 2.
Sequence of RIPK3 (Q9Y572 whole entry): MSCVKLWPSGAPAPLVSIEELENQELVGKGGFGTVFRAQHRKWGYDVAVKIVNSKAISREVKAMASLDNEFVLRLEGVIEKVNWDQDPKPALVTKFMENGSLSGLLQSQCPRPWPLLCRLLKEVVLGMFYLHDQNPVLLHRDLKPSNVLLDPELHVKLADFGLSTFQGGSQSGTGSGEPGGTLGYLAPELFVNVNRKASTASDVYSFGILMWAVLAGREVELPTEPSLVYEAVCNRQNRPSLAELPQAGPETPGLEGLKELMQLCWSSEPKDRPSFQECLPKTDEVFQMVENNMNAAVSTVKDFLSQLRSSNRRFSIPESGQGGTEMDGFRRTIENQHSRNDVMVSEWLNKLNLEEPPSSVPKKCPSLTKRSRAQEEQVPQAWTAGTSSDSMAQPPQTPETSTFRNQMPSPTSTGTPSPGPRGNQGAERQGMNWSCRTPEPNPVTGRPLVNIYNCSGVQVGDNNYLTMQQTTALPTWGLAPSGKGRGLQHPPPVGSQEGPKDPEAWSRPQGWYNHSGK
For assay [6], the target named is CDK4/cyclin D1 (Homo sapiens, UniProt P11802). The note with it: 1 μM; Run 1, Run 2.
Sequence of CDK4/cyclin D1 (P11802 whole entry): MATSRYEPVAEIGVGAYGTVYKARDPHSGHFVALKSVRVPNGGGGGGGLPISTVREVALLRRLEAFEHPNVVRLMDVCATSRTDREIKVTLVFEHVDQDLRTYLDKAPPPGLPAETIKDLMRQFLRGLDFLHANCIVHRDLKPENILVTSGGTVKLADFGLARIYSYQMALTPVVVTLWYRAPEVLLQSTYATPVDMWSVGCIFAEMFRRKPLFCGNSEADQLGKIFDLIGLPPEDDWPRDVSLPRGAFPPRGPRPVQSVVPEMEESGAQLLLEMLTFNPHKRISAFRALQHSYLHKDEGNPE
Sequence of CDK4/cyclin D1 (P24385 whole entry partner): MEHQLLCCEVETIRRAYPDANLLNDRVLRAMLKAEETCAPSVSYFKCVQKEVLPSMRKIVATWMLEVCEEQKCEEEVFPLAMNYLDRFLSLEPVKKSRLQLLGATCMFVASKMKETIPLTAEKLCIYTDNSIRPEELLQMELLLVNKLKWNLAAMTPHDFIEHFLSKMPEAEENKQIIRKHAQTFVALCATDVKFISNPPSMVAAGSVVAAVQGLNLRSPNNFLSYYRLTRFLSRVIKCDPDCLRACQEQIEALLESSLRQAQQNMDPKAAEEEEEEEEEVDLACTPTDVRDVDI
Assay [7] concerns the target CAMK2a (Homo sapiens, UniProt Q9UQM7). The assay can be described thus: biochemical. The note with it: read-out: % enzyme activity, 1 μM; Run 1, Run 2.
The target in assay [8] is CSK (Homo sapiens, UniProt P41240). The note with it: 1 μM; Run 1, Run 2.
Assay [9] deals with FGFR4 (Homo sapiens, UniProt P22455). The note with it: 1 μM; Run 1, Run 2.
Sequence of FGFR4 (P22455 22-802): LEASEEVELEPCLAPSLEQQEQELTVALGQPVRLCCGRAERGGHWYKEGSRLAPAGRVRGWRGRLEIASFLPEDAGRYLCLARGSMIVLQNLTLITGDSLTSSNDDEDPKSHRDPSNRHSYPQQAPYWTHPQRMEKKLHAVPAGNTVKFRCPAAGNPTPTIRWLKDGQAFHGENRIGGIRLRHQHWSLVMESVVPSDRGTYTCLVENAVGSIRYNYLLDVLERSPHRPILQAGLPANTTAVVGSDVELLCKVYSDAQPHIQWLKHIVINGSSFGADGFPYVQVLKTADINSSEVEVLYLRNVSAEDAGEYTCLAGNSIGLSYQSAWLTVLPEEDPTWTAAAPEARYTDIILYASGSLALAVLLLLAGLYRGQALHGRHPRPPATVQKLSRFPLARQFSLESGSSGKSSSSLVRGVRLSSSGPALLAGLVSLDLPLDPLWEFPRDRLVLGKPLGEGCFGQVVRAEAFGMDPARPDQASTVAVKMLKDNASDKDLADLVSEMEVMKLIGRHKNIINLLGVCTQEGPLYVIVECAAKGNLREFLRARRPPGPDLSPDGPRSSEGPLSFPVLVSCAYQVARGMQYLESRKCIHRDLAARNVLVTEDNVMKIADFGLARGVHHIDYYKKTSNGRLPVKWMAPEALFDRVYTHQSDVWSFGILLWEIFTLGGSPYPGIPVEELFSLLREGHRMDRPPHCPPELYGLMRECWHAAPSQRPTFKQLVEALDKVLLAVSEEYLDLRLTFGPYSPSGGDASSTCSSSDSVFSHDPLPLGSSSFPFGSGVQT
Assay [10] concerns the target PHKg1 (Homo sapiens, UniProt Q16816). The assay can be described thus: biochemical. The note with it: read-out: % enzyme activity, 1 μM; Run 1, Run 2.
Assay [11] concerns the target STK25/YSK1 (Homo sapiens, UniProt O00506). The note with it: 1 μM; Run 1, Run 2.
The target in assay [12] is SRMS (Homo sapiens, UniProt Q9H3Y6). The assay can be described thus: biochemical. The note with it: read-out: % enzyme activity, 1 μM; Run 1, Run 2.
Sequence of SRMS (Q9H3Y6 whole entry): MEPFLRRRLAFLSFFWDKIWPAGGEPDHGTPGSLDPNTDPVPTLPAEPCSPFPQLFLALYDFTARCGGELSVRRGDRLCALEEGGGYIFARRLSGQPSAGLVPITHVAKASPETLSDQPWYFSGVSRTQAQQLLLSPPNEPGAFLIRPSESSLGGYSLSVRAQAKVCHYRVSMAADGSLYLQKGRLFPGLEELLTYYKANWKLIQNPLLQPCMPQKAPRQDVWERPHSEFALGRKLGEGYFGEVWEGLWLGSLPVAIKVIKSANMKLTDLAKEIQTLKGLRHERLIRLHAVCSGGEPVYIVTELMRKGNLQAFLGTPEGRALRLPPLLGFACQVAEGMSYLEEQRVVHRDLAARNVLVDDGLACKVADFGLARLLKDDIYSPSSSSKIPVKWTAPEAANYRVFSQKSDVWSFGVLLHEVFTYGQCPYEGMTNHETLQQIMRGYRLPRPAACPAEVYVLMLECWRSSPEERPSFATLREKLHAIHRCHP
Assay [13] addresses T2, ITK (Homo sapiens, UniProt Q08881).
T2 sequence (Q08881 1-620): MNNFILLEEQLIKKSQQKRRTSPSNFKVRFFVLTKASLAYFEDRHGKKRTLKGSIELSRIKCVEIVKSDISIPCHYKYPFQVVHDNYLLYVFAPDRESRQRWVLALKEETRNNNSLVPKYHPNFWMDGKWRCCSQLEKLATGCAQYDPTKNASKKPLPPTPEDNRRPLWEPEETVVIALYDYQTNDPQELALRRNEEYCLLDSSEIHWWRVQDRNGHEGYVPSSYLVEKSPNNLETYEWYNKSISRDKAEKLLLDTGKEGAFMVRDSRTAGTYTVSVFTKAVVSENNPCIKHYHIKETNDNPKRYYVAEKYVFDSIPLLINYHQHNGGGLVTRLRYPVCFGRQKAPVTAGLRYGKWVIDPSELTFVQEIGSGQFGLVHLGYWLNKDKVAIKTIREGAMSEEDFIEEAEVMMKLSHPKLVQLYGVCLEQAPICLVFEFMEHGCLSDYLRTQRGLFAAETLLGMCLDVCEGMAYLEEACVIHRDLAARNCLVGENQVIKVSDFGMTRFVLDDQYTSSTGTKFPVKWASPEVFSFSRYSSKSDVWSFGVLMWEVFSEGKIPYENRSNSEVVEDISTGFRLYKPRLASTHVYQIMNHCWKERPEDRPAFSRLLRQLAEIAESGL
The assay can be described thus: biochemical. The note with it: read-out: % enzyme activity, 1 μM; Run 1, Run 2.

Assay [14] has as its system ALK4/ACVR1B.
The target in assay [15] is CDK9/cyclin T1 (Homo sapiens, UniProt P50750). The note with it: 1 μM; Run 1, Run 2.
Assay [16] addresses T3, SNRK (Homo sapiens, UniProt Q9NRH2).
T3 sequence (Q9NRH2 1-765): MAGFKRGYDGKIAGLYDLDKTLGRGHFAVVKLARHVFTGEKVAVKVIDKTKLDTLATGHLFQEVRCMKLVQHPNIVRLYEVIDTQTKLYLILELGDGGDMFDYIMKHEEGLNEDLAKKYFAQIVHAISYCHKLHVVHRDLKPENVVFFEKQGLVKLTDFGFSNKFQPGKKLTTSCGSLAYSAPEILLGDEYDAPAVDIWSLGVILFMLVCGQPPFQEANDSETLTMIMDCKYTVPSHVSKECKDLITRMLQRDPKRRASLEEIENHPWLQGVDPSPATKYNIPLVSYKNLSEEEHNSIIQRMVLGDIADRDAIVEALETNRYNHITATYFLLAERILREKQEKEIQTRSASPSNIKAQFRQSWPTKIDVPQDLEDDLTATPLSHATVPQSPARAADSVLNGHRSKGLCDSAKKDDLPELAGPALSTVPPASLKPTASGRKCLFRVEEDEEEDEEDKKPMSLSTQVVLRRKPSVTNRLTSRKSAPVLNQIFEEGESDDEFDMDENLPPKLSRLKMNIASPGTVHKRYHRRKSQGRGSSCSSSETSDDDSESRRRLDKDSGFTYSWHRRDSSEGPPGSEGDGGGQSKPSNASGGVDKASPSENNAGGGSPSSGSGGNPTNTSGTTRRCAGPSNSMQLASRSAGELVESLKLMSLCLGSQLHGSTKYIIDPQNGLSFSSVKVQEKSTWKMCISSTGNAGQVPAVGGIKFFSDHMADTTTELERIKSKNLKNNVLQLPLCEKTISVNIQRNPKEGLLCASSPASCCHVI
The note with it: 1 μM; Run 1, Run 2.

The target in assay [17] is CAMK1d (Homo sapiens, UniProt Q8IU85). The note with it: 1 μM; Run 1, Run 2.
Sequence of CAMK1d (Q8IU85 whole entry): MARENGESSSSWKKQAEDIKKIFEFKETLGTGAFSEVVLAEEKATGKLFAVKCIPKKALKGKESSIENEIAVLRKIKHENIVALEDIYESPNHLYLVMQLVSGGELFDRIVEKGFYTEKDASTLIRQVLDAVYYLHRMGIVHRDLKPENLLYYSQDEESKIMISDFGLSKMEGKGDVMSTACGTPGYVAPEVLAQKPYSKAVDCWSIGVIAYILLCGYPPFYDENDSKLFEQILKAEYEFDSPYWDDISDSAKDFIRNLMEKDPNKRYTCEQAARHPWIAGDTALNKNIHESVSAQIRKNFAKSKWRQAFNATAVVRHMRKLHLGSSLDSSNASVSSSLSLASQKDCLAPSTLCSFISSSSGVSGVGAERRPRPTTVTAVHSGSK

“And” between values parts separate entries of the source, which are not always exact repeats. Identical values can stand only once.

Sequence of CAMK2a (Q9UQM7 whole entry): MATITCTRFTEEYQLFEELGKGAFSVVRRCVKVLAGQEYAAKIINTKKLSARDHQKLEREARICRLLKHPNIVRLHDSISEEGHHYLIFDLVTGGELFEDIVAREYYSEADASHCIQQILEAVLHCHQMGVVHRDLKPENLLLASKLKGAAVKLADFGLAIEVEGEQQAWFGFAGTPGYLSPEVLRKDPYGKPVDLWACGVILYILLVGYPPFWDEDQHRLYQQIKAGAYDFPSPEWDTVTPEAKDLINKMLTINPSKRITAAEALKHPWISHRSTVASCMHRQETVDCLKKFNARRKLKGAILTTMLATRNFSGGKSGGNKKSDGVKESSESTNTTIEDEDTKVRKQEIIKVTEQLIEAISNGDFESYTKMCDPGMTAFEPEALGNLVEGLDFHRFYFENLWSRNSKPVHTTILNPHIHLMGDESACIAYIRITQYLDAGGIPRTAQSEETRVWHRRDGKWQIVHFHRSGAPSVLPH

`COc1cc(-c2cncc(-c3ccc(N4C[C@@H](C)N(C)[C@@H](C)C4)cc3)c2C)cc(F)c1C(N)=O` [Compound 26c, 2-Fluoro-6-methoxy-4-(4-methyl-5-(4-((3R,5S)-3,4,5-trimethylpiperazin-1-yl)phenyl)pyridin-3-yl)benzamide]: the remaining activity at 1 µM in assay [1] was 91.9%; in [2] it was 46.6%; in assay [4], 74.7%; in [5], 104%; in [7] it was 96.7%; in assay [10] it was 97%. Also, the remaining activity at 1 µM was 96.1% in [12] and 102% in assay [13]. Besides, the “% enzyme activity” value in assay [2] was determined as 46.59%; in [3], 99.76%; in [6], 100.29%; in assay [8] it was 102.04%; in [9] it was 98.99%; in assay [11], 94.06%. The results for the “% enzyme activity” value in assay [15], in assay [16] and in [17] were 96.85%, 97.75% and 97.72%, respectively. Moreover, the % enzyme activity at 1 μM in assay [14] is 82.4% and 81.7%.

`COc1cc(-c2cncc(-c3ccc(N4CCN(C)CC4)cc3)c2C)cc(F)c1C(N)=O` [Compound 26a, 2-Fluoro-6-methoxy-4-(4-methyl-5-(4-(4-methylpiperazin-1-yl)phenyl)pyridin-3-yl)benzamide]: the remaining activity at 1 µM is 90.6% in [1]; 31.3% in assay [2]; 58.7% in assay [4]; 106% in [5]; 85.5% in assay [7]; 85.6% in [10]. Besides, the remaining activity at 1 µM in [12] amounted to 96.6%; in assay [13] it was 106%. The “% enzyme activity” value in assay [2] was found to be 30.86%; in assay [3] it was 96.69%; in assay [6], 98.46%; in [8], 99.36%; in [9], 97.61%; in assay [11], 94.98%. The “% enzyme activity” value in [15] was 90.82%; in assay [16] it was 104.94%; in assay [17] it was 98.20%. Besides, the % enzyme activity at 1 μM in [14] came to 68.8%.
